Numbers after ± are expanded uncertainties.

For the data set the following is noted: 298.15 K; 100 kPa; Liquid; Vibrating tube method.
In the case of `CC(C)CC(C)(C)C` [2,2,4-trimethylpentane], the mass density (in general, mass per unit of volume) turned out to be 687.32 ± 1.7 kg/m3.
In the case of `N#CCCc1ccccc1` [3-phenylpropanenitrile], the mass density was 996.44 ± 2.4 kg/m3.
Then `N#CCc1ccccc1` [benzeneacetonitrile], with 1012.89 ± 2.6 kg/m3.
For the molecule `C1CCCCCCC1` [cyclooctane], the mass density came out at 831.61 ± 2 kg/m3.
For the molecule `CCCCCCC` [heptane], the mass density is listed as 679.71 ± 1.6 kg/m3.
`CCCCCCCCC` [nonane]: the mass density was determined as 713.93 ± 1.7 kg/m3.
Then `CCCCCCCC` [octane], with 698.71 ± 1.7 kg/m3.

For the origin of these results see the NIST ThermoML archive (doi:10.1016/j.jct.2017.09.027).
